Measurements from PubChem BioAssay AID652211 (Johns Hopkins Ion Channel Center, 2013).
Activity calls are given as the source filed them.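 How the source made its calls: active means lowers flux through the TASK3 potassium channel at some tested dose, with a dose response curve; inactive means no inhibition at any dose or no dose response.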

Target: Potassium channel subfamily K member 9 (Homo sapiens) (UniProt Q9NPC2)
Test: TASK3 (KCNK9) channel inhibitors, thallium flux, SAR follow-up, selectivity assay for TASK1 inhibitor project, cell-based, FluxOR thallium flux, concentration-response (AID 652211)
Settings: KCNK9-expressing cells, FluxOR thallium flux fluorescence; for thallium flux ratio, lower = inhibition: at 30 µM (top of the series)

Potassium channel subfamily K member 9 (Homo sapiens), sequence (Q9NPC2 whole entry, looked up): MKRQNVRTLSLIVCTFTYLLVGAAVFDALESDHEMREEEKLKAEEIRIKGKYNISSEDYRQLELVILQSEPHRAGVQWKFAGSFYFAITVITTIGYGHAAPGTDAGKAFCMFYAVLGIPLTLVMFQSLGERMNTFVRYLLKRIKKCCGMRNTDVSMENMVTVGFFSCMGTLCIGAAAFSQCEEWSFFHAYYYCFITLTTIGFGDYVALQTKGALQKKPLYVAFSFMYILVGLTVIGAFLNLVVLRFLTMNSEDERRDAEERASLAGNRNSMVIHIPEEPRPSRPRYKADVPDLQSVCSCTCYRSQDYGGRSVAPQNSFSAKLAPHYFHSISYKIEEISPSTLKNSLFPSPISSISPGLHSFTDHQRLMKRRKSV

Structure (SMILES)	thallium flux ratio, lower = inhibition	IC50 [nM]
Cc1cccc(NC(=O)c2cccc(NC(=O)c3ccccc3)c2)c1	inactive	
O=C(Nc1cccc(NC(=O)c2ccncc2)c1)c1ccccc1	inactive	
O=C(Nc1cccc(NC(=O)c2cccnc2)c1)c1ccccc1	inactive	
Cc1cccc(C(=O)Nc2cccc(NC(=O)c3ccncc3)c2)c1	inactive	
Cc1cccc(C(=O)Nc2cccc(C(=O)Nc3ccccc3)c2)c1	inactive	
CCOc1ccc(NC(=O)c2cccc(NC(=O)C3CCCC3)c2)cc1	inactive	
O=C(Nc1cccc(NC(=O)c2ccoc2)c1)c1ccccc1	inactive	
CN(C)c1ccc(C(=O)Nc2cccc(NC(=O)c3ccccc3)c2)cc1	inactive	
Cc1cccc(C(=O)Nc2ccccc2NC(=O)c2ccccc2)c1	inactive	
O=C(Nc1cccc(NC(=O)c2ccsc2)c1)c1ccccc1	inactive	
O=C(Nc1cccc(NC(=O)c2ccccc2)c1)c1ccccc1	inactive	
Cc1cccc(C(=O)Nc2cccc(NC(=O)c3ccc(N(C)C)cc3)c2)c1	inactive	
O=C(Nc1cccc(NC(=O)c2cccc(F)c2)c1)c1ccccc1	inactive	
Cc1cccc(C(=O)Nc2cccc(NC(=O)c3ccc(C(C)(C)C)cc3)c2)c1	inactive	
Cc1cccc(C(=O)Nc2cccc(NC(=O)c3ccc(Cl)cc3)c2)c1	inactive	
Cc1cccc(C(=O)Nc2cccc(NC(=O)c3cccc(F)c3)c2)c1		600
CCOc1ccccc1NC(=O)c1cccc(NC(=O)C2CCOC2)c1 (centres undefined)	inactive	
CC(C)c1ccccc1C(=O)Nc1cccc(NC(=O)c2ccccc2OC(F)(F)F)c1		730
Cc1cccc(C(=O)Nc2ccccc2C(=O)Nc2ccccc2)c1	inactive	
O=C(Nc1cccc(NC(=O)c2ccco2)c1)c1ccccc1	inactive	
Cc1cccc(NC(=O)c2ccccc2NC(=O)c2ccccc2)c1	inactive	
O=C(Nc1cccc(NC(=O)c2cccs2)c1)c1ccccc1	inactive	
O=C(Nc1cccc(NC(=O)c2cccc(Cl)c2)c1)c1ccccc1	inactive	
CCOc1ccccc1NC(=O)c1cccc(C(=O)NC2CCCC2)c1	inactive	
COc1ccc(C(=O)Nc2cccc(NC(=O)c3cccc(C)c3)c2)cc1	inactive	
COc1ccccc1C(=O)Nc1cc(NC(=O)c2ccccc2C(C)C)ccc1F	inactive	
Cc1cccc(S(=O)(=O)Nc2cccc(NC(=O)c3ccccc3)c2)c1	inactive	

Continued, values first:

thallium flux ratio, lower = inhibition	IC50 [nM]	Structure (SMILES)
inactive		Cc1ccc(C(=O)Nc2cccc(NC(=O)c3ccccc3)c2)cc1
inactive		CCOc1ccccc1NC(=O)c1cccc(NC(=O)c2ccc(Cl)cc2)c1
inactive		O=C(Nc1cccc(NC(=O)c2ccc(Cl)cc2)c1)c1ccccc1
inactive		CC(C)(C)c1ccc(C(=O)Nc2cccc(NC(=O)c3ccccc3)c2)cc1
inactive		O=C(Nc1cccc(NC(=O)c2cccc(C(F)(F)F)c2)c1)c1ccccc1
inactive		CCOc1ccccc1NC(=O)c1cccc(NC(=O)C2CCCO2)c1 (centres undefined)
inactive		O=C(Nc1cccc(NC(=O)c2ccc(F)cc2)c1)c1ccccc1
inactive		COc1ccc(C(=O)Nc2cccc(NC(=O)c3ccccc3)c2)cc1
inactive		Cc1cccc(C(=O)Nc2cccc(NC(=O)c3ccc(C(F)(F)F)cc3)c2)c1
inactive		CCOc1ccccc1NC(=O)c1cccc(NC(=O)c2ccc(OC)cc2)c1
inactive		CCOc1ccccc1NC(=O)c1cccc(NC(=O)c2ccc(C(F)(F)F)cc2)c1
inactive		O=C(Nc1cccc(NC(=O)c2ccc(C(F)(F)F)cc2)c1)c1ccccc1
